Data reported in US10519152B2, “Compounds and their use in treating cancer” (AstraZeneca AB, priority 2017, dated 2019).

How the values were obtained:
[1] = molecular target: T1, Estrogen Receptor (ERα) in MCF-7 human ductal carcinoma breast cell line (Homo sapiens, UniProt P03372); test: MCF-7 ER degradation assay (cell based immuno-fluorescence); conditions: MCF-7 cells; for DC50: 18-22 hours incubation, 50% reduction of ERα expression, single experiment or average of two or more, read-out: MCF-7 ER degradation IC50
T1 construct: endogenous in cells; host or cells: MCF-7
T1 sequence (P03372 1-595): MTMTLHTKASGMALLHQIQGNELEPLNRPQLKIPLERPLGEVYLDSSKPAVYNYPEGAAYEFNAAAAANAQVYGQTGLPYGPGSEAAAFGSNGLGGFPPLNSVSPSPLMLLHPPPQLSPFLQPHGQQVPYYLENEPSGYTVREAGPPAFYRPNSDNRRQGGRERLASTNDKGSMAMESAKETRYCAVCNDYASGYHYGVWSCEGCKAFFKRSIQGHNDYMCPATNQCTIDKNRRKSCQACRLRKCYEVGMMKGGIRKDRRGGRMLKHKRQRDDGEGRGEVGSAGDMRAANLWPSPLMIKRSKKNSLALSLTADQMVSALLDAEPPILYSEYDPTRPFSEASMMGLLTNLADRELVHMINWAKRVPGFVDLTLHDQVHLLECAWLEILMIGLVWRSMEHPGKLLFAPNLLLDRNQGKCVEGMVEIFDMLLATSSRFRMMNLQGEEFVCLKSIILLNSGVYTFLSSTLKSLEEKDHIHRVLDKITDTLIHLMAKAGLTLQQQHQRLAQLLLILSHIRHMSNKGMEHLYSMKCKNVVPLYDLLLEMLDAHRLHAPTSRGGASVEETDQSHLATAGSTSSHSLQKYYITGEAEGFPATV
Outline: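 MCF-7 human ductal carcinoma breast cells were seeded at 3.75×10^4 cells per mL (40 μL per well) in 384 well plates with phenol red free DMEM containing 2 mM L-Glutamine and 5% (v/v) Charcoal/Dextran treated foetal calf serum. After overnight culture, compounds were acoustically dispensed, incubated 18-22 hours, then cells were formaldehyde-fixed and immunostained for ERα.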

[2] = molecular target: T2, recombinant human Estrogen Receptor alpha ligand binding domain, residues 307-554 (ER alpha-LBD (GST)) (Homo sapiens, UniProt P03372); test: ERα binding assay (LanthaScreen TR-FRET competition); conditions: TR-FRET competition with Fluormone ES2 tracer, 4 hours at room temperature; single experiment or average of two or more
T2 construct: made in house
T2 sequence (P03372 307-554): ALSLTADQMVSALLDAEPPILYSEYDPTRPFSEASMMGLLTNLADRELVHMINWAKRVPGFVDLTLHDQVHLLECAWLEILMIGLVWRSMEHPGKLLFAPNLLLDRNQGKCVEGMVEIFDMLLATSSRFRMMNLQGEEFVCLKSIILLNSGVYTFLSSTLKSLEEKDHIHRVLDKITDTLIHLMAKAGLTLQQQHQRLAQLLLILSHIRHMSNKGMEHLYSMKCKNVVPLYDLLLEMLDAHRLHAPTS
Experimental: The ability of compounds to bind to isolated Estrogen Receptor Alpha Ligand binding domain (ER alpha-LBD (GST)) was assessed in competition assays using a LanthaScreen™ Time-Resolved Fluorescence Resonance Energy Transfer (TR-FRET) detection end-point. For the LanthaScreen TR-FRET endpoint, a suitable fluorophore (Fluormone ES2, ThermoFisher, Product code P2645) and recombinant human Estrogen Receptor alpha ligand binding domain, residues 307-554 (expressed and purified in-house) were used to measure compound binding. The assay principle is that ER alpha-LBD (GST) is added to a fluorescent ligand to form a receptor/fluorophore complex. A terbium-labelled anti-GST antibody (Product code PV3551) is used to indirectly label the receptor by binding to its GST tag, and competitive binding is detected by a test compound's ability to displace the fluorescent ligand, resulting in a loss of TR-FRET signal between the Tb-anti-GST antibody and the tracer. The assay was performed as follows with all reagent additions carried out using the Beckman Coulter BioRAPTR FRD microfluidic workstation: • 1. Acoustic dispense 120 nL of the test compound into a black low volume 384 well assay plates. • 2. Prepare 1×ER alpha-LBD/Tb-antiGST Ab in ES2 screening buffer and incubate for 15 minutes. • 3. Dispense 6 μL of the […] reagent into each well of the assay plate followed by 6 μL of Fluorophore reagent into each well of the assay plate • 4. Cover the assay plate to protect the reagents from light and evaporation, and incubate at room temperature for 4 hours. • 5. Excite at 337 nm and measure the fluorescent emission signal of each well at 490 nm and 520 nm using the BMG PheraSTAR.
Compounds were dosed directly from a compound source microplate containing serially diluted compound (4 wells containing 10 mM, […] and 10 nM final compound respectively) to an assay microplate using the Labcyte Echo 550. The Echo 550 is a liquid handler that uses acoustic technology to perform direct microplate-to-microplate transfers of DMSO compound solutions and the system can be programmed to transfer multiple small nL volumes of compound from the different source plate wells to give the desired serial dilution of compound in the assay which is then back-filled to normalise the DMSO concentration across the dilution range.
In total 120 nL of compound plus DMSO were added to each well and compounds were tested in a 12-point concentration response format over a final compound concentration range of 10, 2.917, 1.042, 0.2083, 0.1, 0.0292, 0.0104, 0.002083, 0.001, 0.0002917, 0.0001042, and 0.00001 μM respectively. TR-FRET dose response data obtained with each compound was exported into a suitable software package (such as Origin or Genedata) to perform curve fitting analysis. Competitive ER alpha binding was expressed as an IC50 value. This was determined by calculation of the concentration of compound that was required to give a 50% reduction in tracer compound binding to ER alpha-LBD.

Row | Structure (SMILES) | DC50 [1] | IC50 [2] | ER degradation ≥ 90% at 0.3 μM ([1]; 0.3 μM, ER degradation by fulvestrant at 0.3 μM is defined as 100%)
1 | Cc1ncsc1-c1ccc(CNC(=O)[C@@H]2C[C@@H](O)CN2C(=O)[C@@H](NC(=O)C(C)(C)OCCCCCCOc2cc(F)c([C@@H]3c4[nH]c5ccccc5c4C[C@@H](C)N3CC(C)(C)F)c(F)c2)C(C)(C)C)cc1 [Example 117, (2S,4R)-1-((S)-2-(2-((6-(3,5-Difluoro-4-((1R,3R)-2-(2-fluoro-2-methylpropyl)-3-methyl-2,3,4,9-tetrahydro-1H-pyrido[3,4-b]indol-1-yl)phenoxy)hexyl)oxy)-2-methylpropanamido)-3,3-dimethylbutanoyl)-4-hydroxy-N-(4-(4-methylthiazol-5-yl)benzyl)pyrrolidine-2-carboxamide] | 22 nM | 0.8 nM | –
2 | Cc1ncsc1-c1ccc(CNC(=O)[C@@H]2C[C@@H](O)CN2C(=O)[C@@H](NC(=O)COCCCc2cccc(COc3cc(F)c([C@@H]4c5[nH]c6ccccc6c5C[C@@H](C)N4CC(C)(C)F)c(F)c3)c2)C(C)(C)C)cc1 [Example 73, (2S,4R)-1-((S)-2-(2-(3-(3-((3,5-Difluoro-4-((1R,3R)-2-(2-fluoro-2-methylpropyl)-3-methyl-2,3,4,9-tetrahydro-1H-pyrido[3,4-b]indol-1-yl)phenoxy)methyl)phenyl)propoxy)acetamido)-3,3-dimethylbutanoyl)-4-hydroxy-N-(4-(4-methylthiazol-5-yl)benzyl)pyrrolidine-2-carboxamide] | – | 1 nM | ••
3 | Cc1ncsc1-c1ccc(CNC(=O)[C@@H]2C[C@@H](O)CN2C(=O)[C@@H](NC(=O)COCCCCOCCOc2ccc([C@@H]3c4[nH]c5ccccc5c4C[C@@H](C)N3CC(F)F)nc2)C(C)(C)C)cc1 [Example 24, (2S,4R)-1-((S)-2-(2-(4-(2-((6-((1S,3R)-2-(2,2-Difluoroethyl)-3-methyl-2,3,4,9-tetrahydro-1H-pyrido[3,4-b]indol-1-yl)pyridin-3-yl)oxy)ethoxy)butoxy)acetamido)-3,3-dimethylbutanoyl)-4-hydroxy-N-(4-(4-methylthiazol-5-yl)benzyl)pyrrolidine-2-carboxamide] | 300 nM | 18 nM | –
4 | Cc1ncsc1-c1ccc(CNC(=O)[C@@H]2C[C@@H](O)CN2C(=O)[C@@H](NC(=O)COCCCCCN2CC(Oc3cc(F)c([C@@H]4c5[nH]c6ccccc6c5C[C@@H](C)N4CC(C)(C)F)c(F)c3)C2)C(C)(C)C)cc1 [Example 46, (2S,4R)-1-((S)-2-(2-((5-(3-(3,5-difluoro-4-((1R,3R)-2-(2-fluoro-2-methylpropyl)-3-methyl-2,3,4,9-tetrahydro-1H-pyrido[3,4-b]indol-1-yl)phenoxy)azetidin-1-yl)pentyl)oxy)acetamido)-3,3-dimethylbutanoyl)-4-hydroxy-N-(4-(4-methylthiazol-5-yl)benzyl)pyrrolidine-2-carboxamide] | 2 nM | 0.8 nM | –
5 | Cc1ncsc1-c1ccc(CNC(=O)[C@@H]2C[C@@H](O)CN2C(=O)[C@@H](NC(=O)CCCCN2CCN(CCOc3cc(F)c([C@@H]4c5[nH]c6ccccc6c5C[C@@H](C)N4CC(C)(C)F)c(F)c3)CC2)C(C)(C)C)cc1 [Example 102, (2S,4R)-1-((S)-2-(5-(4-(2-(3,5-difluoro-4-((1R,3R)-2-(2-fluoro-2-methylpropyl)-3-methyl-2,3,4,9-tetrahydro-1H-pyrido[3,4-b]indol-1-yl)phenoxy)ethyl)piperazin-1-yl)pentanamido)-3,3-dimethylbutanoyl)-4-hydroxy-N-(4-(4-methylthiazol-5-yl)benzyl)pyrrolidine-2-carboxamide] | 0.9 nM | 0.6 nM | –
6 | Cc1ncsc1-c1ccc(CNC(=O)[C@@H]2C[C@@H](O)CN2C(=O)[C@@H](NC(=O)CN(C)CCCCCOc2cc(F)c(C3c4[nH]c5ccccc5c4C[C@@H](C)N3CC(C)(C)F)c(F)c2)C(C)(C)C)cc1 (stereo partly drawn) [Example 90, (2S,4R)-1-((S)-2-(2-((5-(3,5-Difluoro-4-((1R,3R)-2-(2-fluoro-2-methylpropyl)-3-methyl-2,3,4,9-tetrahydro-1H-pyrido-[3,4-b]indol-1-yl)phenoxy)pentyl)(methyl)amino)acetamido)-3,3-dimethylbutanol)-4-hydroxy-N-(4-(4-methylthiazol-5-yl)benzyl)pyrrolidine-2-carboxamide] | 102 nM | 1.2 nM | –
7 | Cc1ncsc1-c1ccc(CNC(=O)[C@@H]2C[C@@H](O)CN2C(=O)[C@@H](NC(=O)CCCCCNCCCCOc2cc(F)c([C@@H]3c4[nH]c5ccccc5c4C[C@@H](C)N3CC(C)(C)F)c(F)c2)C(C)(C)C)cc1 [Example 145, (2S,4R)-1-((S)-2-(6-((4-(3,5-Difluoro-4-((1R,3R)-2-(2-fluoro-2-methylpropyl)-3-methyl-2,3,4,9-tetrahydro-1H-pyrido[3,4-b]indol-1-yl)phenoxy)butyl)amino)hexanamido)-3,3-dimethylbutanoyl)-4-hydroxy-N-(4-(4-methylthiazol-5-yl)benzyl)pyrrolidine-2-carboxamide] | 2.7 nM | 1.1 nM | –
8 | Cc1ncsc1-c1ccc(CNC(=O)[C@@H]2C[C@@H](O)CN2C(=O)[C@@H](NC(=O)CCCNCCCCCCOc2cc(F)c([C@@H]3c4[nH]c5ccccc5c4C[C@@H](C)N3CC(C)(C)F)c(F)c2)C(C)(C)C)cc1 [Example 151, (2S,4R)-1-((S)-2-(4-((6-(3,5-Difluoro-4-((1R,3R)-2-(2-fluoro-2-methylpropyl)-3-methyl-2,3,4,9-tetrahydro-1H-pyrido[3,4-b]indol-1-yl)phenoxy)hexyl)amino)butanamido)-3,3-dimethylbutanoyl)-4-hydroxy-N-(4-(4-methylthiazol-5-yl)benzyl)pyrrolidine-2-carboxamide] | 54 nM | 3.6 nM | –
9 | Cc1ncsc1-c1ccc(CNC(=O)[C@@H]2C[C@@H](O)CN2C(=O)[C@@H](NC(=O)CNCCCCCOc2cc(F)c([C@@H]3c4[nH]c5ccccc5c4C[C@@H](C)N3CC(C)(C)F)c(F)c2)C(C)(C)C)cc1 [Example 89, (2S,4R)-1-((S)-2-(2-((5-(3,5-Difluoro-4-((1R,3R)-2-(2-fluoro-2-methylpropyl)-3-methyl-2,3,4,9-tetrahydro-1H-pyrido[3,4-b]indol-1-yl)phenoxy)pentyl)amino)acetamido)-3,3-dimethylbutanoyl)-4-hydroxy-N-(4-(4-methylthiazol-5-yl)benzyl)pyrrolidine-2-carboxamide] | 0.7 nM | 0.7 nM | –
